Patent US6399377B1, “Use of anti-sense sequences to increase responsiveness to gene amplification” (priority 1999, dated 2002)

Tested on: SBP13-30 CHO cells
Experiment: Acquired sensitivity to MTX of plasmid-transfected cells, crystal violet staining
Format: cell-based, chinese hamster
Conditions: 9 μM MTX, 0 μg DNA (non-transfected cells)
Protocol: In order to assess the level of expression of the anti-sense DHFR sequence and whether its expression effectively blocks DHFR+ expression i.e. renders the cells more responsive/sensitive to MTX treatment, SBP13-30 CHO cells subjected to transfections with three different plasmid concentrations of adHFR2/Neo 0 (control), 100 and 500 μg plasmid DNA, were grown in the absence (controls) or in the presence of MTX (9 μM). Equal amounts of cells from each of the transfections were plated onto duplicate sets of Petri dishes containing standard CHO culture medium, one set receiving cells treated with MTX and the other set receiving untreated cells. When the cells in the dishes without MTX approached confluent growth, the experiment was terminated and the surviving cells were visualized by staining with crystal violet.
As expected, with 0 μM MTX, heavy staining was observed. The staining was moderate-to-heavy in the 9 μM MTX/0 μg DNA dish. […] Cells transfected with high amounts of plasmid (500 μg plasmid DNA/dish) are more sensitive to MTX than cells transfected with lower amounts of plasmid (100 μg plasmid DNA/dish) or the non-transfected control cells (0 μg plasmid/dish). Thus, it is clear that the anti-sense DHFR plasmid successfully transfected the CHO cells and was expressed in these cells. […] In other words, the greater the DHFR^+ inhibition, the greater the MTX toxicity.

## CN(Cc1cnc2nc(N)nc(N)c2n1)c1ccc(C(=O)N[C@@H](CCC(=O)O)C(=O)O)cc1 [MTX, methotrexate]
  crystal violet staining of surviving cells: moderate-to-heavy
